# From paper PMC10135574, “N-Carbamoylputrescine Amidohydrolase of Bacteroides thetaiotaomicron, a Dominant Species of the Human Gut Microbiota” (Biomedicines, 2023)
# Target: T1, NCPAH-(His)6; N-carbamoylputrescine amidohydrolase (NCPAH) (Bacteroides thetaiotaomicron, UniProt Q8A9E0)
# T1 construct: gene BT_0875; full-length, C-terminal His6 tag kept (pET23b NdeI/XhoI, plasmid pMSK106), expressed in E. coli BL21(DE3)
# T1 sequence (Q8A9E0 1-294): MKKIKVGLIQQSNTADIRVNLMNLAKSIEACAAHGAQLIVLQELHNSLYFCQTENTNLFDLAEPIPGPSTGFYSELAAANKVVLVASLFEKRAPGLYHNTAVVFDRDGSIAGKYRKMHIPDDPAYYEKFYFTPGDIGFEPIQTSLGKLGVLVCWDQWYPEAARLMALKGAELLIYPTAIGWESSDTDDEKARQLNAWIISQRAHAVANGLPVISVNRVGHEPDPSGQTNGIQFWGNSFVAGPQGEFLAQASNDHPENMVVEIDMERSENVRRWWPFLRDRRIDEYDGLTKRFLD
# Experiment: HPLC of putrescine formed
# Assay type: biochemical
# Conditions: read-out: % inhibition at 1 mM
row,inhibition at 1000 µM [%],Compound
1,> 80,N=C(N)NCCCCN [agmatine]
2,> 80,NCCCCNCCCN [spermidine]

row,Compound,inhibition at 1000 µM [%]
1,NCCCCN [putrescine],~50
